Measurements from patent US11041184B2, “Mycobacteriophages capable of delivering auto-luminescent elements and uses thereof” (priority 2016, dated 2021).

Test system: Mtb
Assay: detecting sensitivity of a host bacterial strain (Mtb) to a drug with the ARP phage, luminescence read with a luminometer
Format: cell-based, Mycobacterium tuberculosis
Details: for bioluminescence intensity compared to a control: culture at 37° C. for at least 4 hours, DMSO control
[1] = 37° C., at least 4 hours, RIF 2 μg/mL, INH 1 μg/mL, LZD 1 μg/mL, PNU 0.5 μg/mL
[2] = FIG. 12, RIF 2 μg/mL, INH 1 μg/mL, LZD 1 μg/mL, PNU 0.5 μg/mL

SMILES	bioluminescence compared to a control (FIG. 12, culture for 8 hours, EMB 5 μg/mL)	statistical difference between drug group and DMSO control (n.s., p>0.05) (FIG. 12 legend, EMB 5 μg/mL, time not printed in legend)	sensitivity of Mtb to the drug at the concentration (culture for 8 hours, EMB 5 μg/mL)	sensitivity of Mtb to the drug at the concentration [1]	bioluminescence intensity compared to a control [2]
CC[C@@H](CO)NCCN[C@@H](CC)CO [ethambutol]	significant decrease in bioluminescence	no statistical difference	sensitivity		
NNC(=O)c1ccncc1 [isoniazid]				sensitivities	significant decrease of bioluminescence intensity
CC(=O)NC[C@H]1CN(c2ccc(N3CCOCC3)c(F)c2)C(=O)O1 [linezolid]				sensitivities	significant decrease of bioluminescence intensity
